In US20150335609A1, “COMBINATIONS OF HISTONE DEACETYLASE INHIBITOR AND PAZOPANIB AND USES THEREOF” (Pharmacyclics, Inc., priority 2012, published 2015):
Where two headings read alike, the source gives them in different places.

Key:
[1] = Clinical pharmacokinetics of abexinostat, IV and oral dosing; conditions: human, in vivo; for bioavailability: humans; for AUC(0-inf): humans with cancer, solution form, read-out: Systemic exposure measured as AUC0-∞
Experimental: In clinical trials involving humans with cancer, abexinostat in solution form was administered at 2 mg/kg as a single oral dose and as multiple 2-hour IV infusion doses.

[2] = Pharmacokinetics in laboratory animals, fasted state versus fed state; format: in vivo
[3] = Site of absorption of abexinostat
RAD51 = assay: Pre-clinical models, expression of DNA repair genes
Description: Following chemotherapy and/or radiation treatment, some patient's tumors may turn on certain genes as a strategy by the tumor to adapt to the therapy and become resistant to cell death. One example of a genetic change that occurs in many cancers is the activation of the DNA repair gene RAD51. In response to treatment with DNA-damaging chemotherapy or radiation, tumors will often turn on DNA repair genes (including RAD51) as an adaptive strategy to help the tumor repair the DNA damage done by these agents.

tumor cell lines = assay: In vitro activity against tumor cell lines; format: cell-based
[4] = test system: lung, colon, prostate, pancreatic and brain tumors; assay: Mouse tumor models; format: in vivo
primary human tumors = assay: Ex vivo activity in primary human tumors; format: cell-based; conditions: tumors from patients
[5] = Incidence of thrombocytopenia by dosing frequency; format: in vivo, human; conditions: twice a day dosing compared to three times a day dosing
Experimental: In some embodiments, abexinostat (or a salt thereof; e.g., abexinostat HCl) is administered once per day during a cycle of abexinostat (or a salt thereof; e.g., abexinostat HCl). In some embodiments, abexinostat (or a salt thereof; e.g., abexinostat HCl) is administered twice per day during a cycle of abexinostat (or a salt thereof; e.g., abexinostat HCl). In some embodiments, abexinostat (or a salt thereof; e.g., abexinostat HCl) is administered three times per day during a cycle of abexinostat (or a salt thereof; e.g., abexinostat HCl).
In certain instances, thrombocytopenia is a side effect observed in humans that receive treatment with HDAC inhibitor compounds. Grade 4 thrombocytopenia typically includes instances when the human has a platelet count less than 25,000 per […]. Thrombocytopenia may be ameliorated or avoided by lowering the daily dose of abexinostat. In some embodiment, a method disclosed herein further comprises an abexinostat (or a salt thereof; e.g., abexinostat HCl) drug holiday following an abexinostat (or a salt thereof; e.g., abexinostat HCl) cycle.

CN(C)Cc1c(C(=O)NCCOc2ccc(C(=O)NO)cc2)oc2ccccc12 [abexinostat, N-hydroxy-4-{2-[3-(N,N-dimethylaminomethyl)benzofuran-2-ylcarbonylamino]ethoxy}-benzamide]
bioavailability ([1]; 2 mg/kg, administered as immediate release capsules or an oral solution): ~27% | AUC(0-inf) ([1]; 2 mg/kg, multiple 2-hour IV infusion doses): 5.9 µM·h | AUC(0-inf) ([1]; 2 mg/kg, single oral dose): 1.45 µM·h | bioavailability ([1]; from AUC0-∞ of oral versus IV dosing at 2 mg/kg): ~27% | pharmacokinetics, fasted state versus fed state [2]: difference in pharmacokinetics was observed | site of absorption [3]: preferentially absorbed in the intestines | effect on RAD51 (and other DNA repair genes) (RAD51): able to turn off RAD51 | activity against tumor cell lines (tumor cell lines): active against many tumor cell lines | efficacy in mouse tumor models [4]: efficacious in mouse models of lung, colon, prostate, pancreatic and brain tumors | activity in primary human tumors (primary human tumors): active in primary human tumors from patients with colon, ovarian, lung and many hematological cancers | incidences of thrombocytopenia [5]: reduces the incidences of thrombocytopenia
